We go through two compounds from ChEMBL document CHEMBL4765225, “A peptide inhibitor of antibody-dependent cell-mediated cytotoxicity against EGFR/folate receptor-alpha double positive cells” (Medchemcomm, 2018).

Activity calls are given as the source filed them. The rule behind the calls is not given here.

Assay [1] concerns IGROV-1. Kind of assay: Induction of CD20 antibody recruitment on human IGROV1 cell surface by flow cytometry analysis. It is filed as functional, tissue-based. Background: In flow cytometry, cells or beads pass a laser one at a time.
Assay [2] deals with IGROV-1. Nature of the assay: Induction of EGFR antibody accumulation on human IGROV1 cell surface assessed as ternary complex formation by fluorescence microscopy. The class given is functional.
Assay [3] has as its system IGROV-1. Kind of assay: Induction of EGFR antibody accumulation on human IGROV1 cell surface assessed as ternary complex formation in presence of excess folate by fluorescence microscopy. It is filed as functional, tissue-based.
A further assay relates to A549. Kind of assay: Induction of EGFR antibody accumulation on human A549 cell surface assessed as ternary complex formation by fluorescence microscopy. It is filed as functional, tissue-based.
In assay [4] the test system is IGROV-1. Nature of the assay: Induction of CD20 antibody accumulation on human IGROV1 cell surface assessed as ternary complex formation in presence of excess folate by fluorescence microscopy. The class given is functional, tissue-based.
Assay [5] can be described thus: Inhibition of antibody-dependent cell-mediated cytotoxicity in human IGROV1 cells incubated for 10 mins followed by addition of KHYG-1/FC-gamma-3A-158V by LDH assay. It is filed as functional, cell-based. The conditions noted are these: IGROV-1, 10 min.
Assay [6] deals with IGROV-1. Nature of the assay: Induction of CD20 antibody recruitment on human IGROV1 cell surface assessed as ternary complex formation by fluorescence microscopy. The class given is functional.
Assay [7] deals with IGROV-1. Nature of the assay: Induction of CD20 antibody accumulation on human IGROV1 cell surface assessed as ternary complex formation by fluorescence microscopy. The class given is functional.

The IC50 is the concentration that gives 50% inhibition. Low readings indicate greater potency in that assay, high ones weaker potency in that assay. For `CC(C)C[C@@H]1NC(=O)[C@H](Cc2c[nH]cn2)NC(=O)[C@H](Cc2c[nH]c3ccccc23)NC(=O)[C@H](C)NC(=O)[C@@H](NC(=O)[C@H](CC(=O)O)NC(=O)CCOCCOCCOCCOCCOCCOCCNC(=O)CCC(NC(=O)c2ccc(NCc3cnc4[nH]c(N)nc(=O)c4n3)cc2)C(=O)O)CSSC[C@@H](C(=O)N[C@H](C(N)=O)[C@@H](C)O)NC(=O)[C@H](Cc2c[nH]c3ccccc23)NC(=O)[C@H](C(C)C)NC(=O)[C@H](CC(C)C)NC(=O)[C@H](CCC(=O)O)NC(=O)CNC1=O` (some centres undefined), the result in the assay on IGROV-1 [1] and in the assay with IGROV-1 [2] was Active. For the same compound, the outcome in the assay on IGROV-1 [3], in the assay with A549 and with IGROV-1 [4] was inactive. Also, in assay [5], the half-maximal inhibitory concentration (IC50) came out at 0.4 nM.

As to `CC(C)C[C@@H]1NC(=O)[C@H](Cc2c[nH]cn2)NC(=O)[C@H](Cc2c[nH]c3ccccc23)NC(=O)[C@H](C)NC(=O)[C@@H](NC(=O)[C@H](CC(=O)O)NC(=O)CCOCCOCCOCCOCCOCCOCCNC(=O)C(CCCCNC(=O)c2ccc(-c3c4ccc(=[N+](C)C)cc-4oc4cc(N(C)C)ccc34)c(C(=O)[O-])c2)NC(=O)CCC(NC(=O)c2ccc(NCc3cnc4[nH]c(N)nc(=O)c4n3)cc2)C(=O)O)CSSC[C@@H](C(=O)N[C@H](C(N)=O)[C@@H](C)O)NC(=O)[C@H](Cc2c[nH]c3ccccc23)NC(=O)[C@H](C(C)C)NC(=O)[C@H](CC(C)C)NC(=O)[C@H](CCC(=O)O)NC(=O)CNC1=O` (some centres undefined), the outcome with IGROV-1 [6] and with IGROV-1 [7] was Active. Moreover, the result in the assay with A549 was inactive.
